Results: US20240317721A1, “PYRAZOLYL DERIVATIVES AS INHIBITORS OF THE KRAS MUTANT PROTEIN” (NOVARTIS AG, priority 2021, published 2024)

target: KRasG12C (M1-K169, biotinylated on the N-terminus) (Homo sapiens (Human), UniProt P01116, G12C); assay: Covalent competition assay: scintillation proximity assay (SPA) quantifying covalent modification of KRASG12C; format: binding; details: competition with radiolabeled covalent probe (Compound B/Compound A), 2 hours incubation, 10 nM KRasG12C
In short: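 Scintillation proximity readout after streptavidin bead capture (30 min) of biotinylated KRasG12C(M1-K169):GDP, 10 nM final, which was covalently labelled over 2 h by 25 nM radio-probe plus 475 nM cold probe unless blocked by compound.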

IC50 [nM] | Structure (SMILES)
110 | C=CC(=O)N1CC2(CC(n3nc(N4CCC5(CC4)CN(C(C)=O)CCO5)c(-c4c(Cl)c(C)cc5[nH]ncc45)c3C)C2)C1 (single isomer, unassigned) [Example 26b, 1-(6-(3-(4-acetyl-1-oxa-4,9-diazaspiro [5.5]undecan-9-yl)-4-(5-chloro-6-methyl-1H-indazol-4-yl)-5-methyl-1H-pyrazol-1-yl)-2-azaspiro[3.3]heptan-2-yl)prop-2-en-1-one]
> 5000 | C=CC(=O)N1CC2(CC(n3nc(N4CCC(N(C)C(=O)COC)CC4(C)C)c(-c4c(Cl)c(C)cc5[nH]ncc45)c3C)C2)C1 (single isomer, unassigned) [Example 96a, N-(1-(1-(2-acryloyl-2-azaspiro[3.3]heptan-6-yl)-4-(5-chloro-6-methyl-1H-indazol-4-yl)-5-methyl-1H-pyrazol-3-yl)-2,2-dimethylpiperidin-4-yl)-2-methoxy-N-methylacetamide]
> 5000 | C=CC(=O)N1CC2(CC(n3nc(N4CC[C@@H](CN5C[C@@H]6C[C@H]5CS6(=O)=O)CC4(C)C)c(-c4c(Cl)c(Cl)cc5[nH]ncc45)c3C)C2)C1 (single isomer, unassigned) [Example 249a]
32 | C=CC(=O)N1CC2(CC(n3nc(N4CCN(C(=O)N(C)C)CC4(C)C)c(-c4c(Cl)c(C)cc5[nH]ncc45)c3C)C2)C1 (single isomer, unassigned) [Example 129a, 4-(1-(2-acryloyl-2-azaspiro[3.3]heptan-6-yl)-4-(5-chloro-6-methyl-1H-indazol-4-yl)-5-methyl-1H-pyrazol-3-yl)-N,N,3,3-tetramethylpiperazine-1-carboxamide]
> 5000 | C=CC(=O)N1CC2(CC(n3nc(N4CC(=O)N(C)CC45CCC5)c(-c4c(Cl)c(C)cc5[nH]ncc45)c3C)C2)C1 (single isomer, unassigned) [Example 65a, 5-(1-(2-acryloyl-2-azaspiro[3.3]heptan-6-yl)-4-(5-chloro-6-methyl-1H-indazol-4-yl)-5-methyl-1H-pyrazol-3-yl)-8-methyl-5,8-diazaspiro[3.5]nonan-7-one]
4000 | C=CC(=O)N1CC2(CC(n3nc(N4CC[C@@H](CN5CCOCC5)CC4(C)C)c(-c4c(C)c(Cl)cc5[nH]ncc45)c3C)C2)C1 (single isomer, unassigned) [Example 233a]
405 | C=CC(=O)N1CC2(CC(n3nc(N4CCC(CN5CCOCC5)CC4(C)COC)c(-c4c(Cl)c(Cl)cc5[nH]ncc45)c3C)C2)C1 (single isomer, unassigned) [Example 221b, 1-(6-(4-(5,6-dichloro-1H-indazol-4-yl)-3-(2-(methoxymethyl)-2-methyl-4-(morpholinomethyl)piperidin-1-yl)-5-methyl-1H-pyrazol-1-yl)-2-azaspiro[3.3]heptan-2-yl)prop-2-en-1-one]
301 | C=CC(=O)N1CC2(CC(n3nc(N4CCN(C(C)=O)C5(CCC5)C4)c(-c4c(Cl)c(C)cc5[nH]ncc45)c3C)C2)C1 (single isomer, unassigned) [Example 20a, 1-(6-(3-(5-acetyl-5,8-diazaspiro[3.5]nonan-8-yl)-4-(5-chloro-6-methyl-1H-indazol-4-yl)-5-methyl-1H-pyrazol-1-yl)-2-azaspiro[3.3]heptan-2-yl)prop-2-en-1-one]
10 | C=CC(=O)N1CC2(CC(n3nc(N4CC[C@@H](OCCN5CCOCC5)CC4(C)C)c(-c4c(Cl)c(Cl)cc5[nH]ncc45)c3C)C2)C1 (single isomer, unassigned) [Example 110b]
334 | C=CC(=O)N1CC2(CC(n3nc(N4CCN(C[C@@H]5COCCO5)C[C@]4(C)CC)c(-c4c(Cl)c(C)cc5c4cnn5C)c3C)C2)C1 (single isomer, unassigned) [Example 109a]
1500 | C=CC(=O)N1CC2(CC(n3nc(N4CC[C@@H](CN(CCO)CCOC)CC4(C)C)c(-c4c(Cl)c(Cl)cc5[nH]ncc45)c3C)C2)C1 (single isomer, unassigned) [Example 253a]
4600 | C=CC(=O)N1CC2(CC(n3nc(N4CCC(n5ccnc5)CC4(C)C)c(-c4c(Cl)c(C)cc5[nH]ncc45)c3C)C2)C1 (single isomer, unassigned) [Example 44a, 1-(6-(3-(4-(1H-imidazol-1-yl)-2,2-dimethylpiperidin-1-yl)-4-(5-chloro-6-methyl-1H-indazol-4-yl)-5-methyl-1H-pyrazol-1-yl)-2-azaspiro[3.3]heptan-2-yl)prop-2-en-1-one]
> 5000 | C=CC(=O)N1CC2(CC(n3nc(N4CCN(CC5(O)CC5)CC45CCC5)c(-c4c(Cl)c(C)cc5[nH]ncc45)c3C)C2)C1 (single isomer, unassigned) [Example 154a, 1-(6-(4-(5-chloro-6-methyl-1H-indazol-4-yl)-3-(8-((1-hydroxycyclopropyl)methyl)-5,8-diazaspiro[3.5]nonan-5-yl)-5-methyl-1H-pyrazol-1-yl)-2-azaspiro[3.3]heptan-2-yl)prop-2-en-1-one]
558 | C=CC(=O)N1CC2(CC(n3nc(N4CCN(C5CCOCC5)C[C@]4(C)COC)c(-c4c(Cl)c(C)cc5[nH]nc(N)c45)c3C)C2)C1 (single isomer, unassigned) [Example 90b]
> 5000 | C=CC(=O)N1CC2(CC(n3nc(N4CCN(C5CCOCC5)CC45CCC5)c(-c4c(Cl)c(C)cc5[nH]ncc45)c3C)C2)C1 (single isomer, unassigned) [Example 130a, 1-(6-(4-(5-Chloro-6-methyl-1H-indazol-4-yl)-5-methyl-3-(8-(tetrahydro-2H-pyran-4-yl)-5,8-diazaspiro[3.5]nonan-5-yl)-1H-pyrazol-1-yl)-2-azaspiro[3.3]heptan-2-yl)prop-2-en-1-one]
81 | C=CC(=O)N1CC2(CC(n3nc(N4CCC(CN5CCOCC5)C4(C)C)c(-c4c(Cl)c(Cl)cc5[nH]ncc45)c3C)C2)C1 (single isomer, unassigned) [Example 218a, 1-(6-(4-(5,6-dichloro-1H-indazol-4-yl)-3-(2,2-dimethyl-3-(morpholinomethyl)pyrrolidin-1-yl)-5-methyl-1H-pyrazol-1-yl)-2-azaspiro[3.3]heptan-2-yl)prop-2-en-1-one]
4900 | C=CC(=O)N1CC2(CCC(n3nc(N4CCN(C(C)=O)CC4)c(-c4c(Cl)ccc5[nH]ncc45)c3C)C2)C1 (single isomer, unassigned) [Example 53a, 1-(6-(3-(4-acetylpiperazin-1-yl)-4-(5-chloro-1H-indazol-4-yl)-5-methyl-1H-pyrazol-1-yl)-2-azaspiro[3.4]octan-2-yl)prop-2-en-1-one]
29 | C=CC(=O)N1CC2(CC(n3nc(N4CCN(C5CCOC5)CC45CCC5)c(-c4c(Cl)c(C)cc5[nH]ncc45)c3C)C2)C1 (single isomer, unassigned) [Example 132d, 1-(6-(4-(5-chloro-6-methyl-1H-indazol-4-yl)-5-methyl-3-(8-(tetrahydrofuran-3-yl)-5,8-diazaspiro[3.5]nonan-5-yl)-1H-pyrazol-1-yl)-2-azaspiro[3.3]heptan-2-yl)prop-2-en-1-one]
15 | C=CC(=O)N1CC2(CC(n3nc(N4CC[C@@H](N(C)C(C)=O)CC4(C)C)c(-c4c(Cl)c(C)cc5[nH]ncc45)c3C)C2)C1 (single isomer, unassigned) [Example 69b]
10 | C=CC(=O)N1CC2(CC(n3nc(N4CC[C@@H](CN(C)S(=O)(=O)N5CCN(C)CC5)CC4(C)C)c(-c4c(Cl)c(Cl)cc5[nH]ncc45)c3C)C2)C1 (single isomer, unassigned) [Example 304b]
140 | CC[C@@]1(C)CN(C[C@@H]2COCCO2)CCN1c1nn(C2CC3(C2)CN(C(=O)/C=C/COC)C3)c(C)c1-c1c(Cl)c(C)cc2[nH]ncc12 (single isomer, unassigned) [Example 120b]
41900 | C=CC(=O)N1CC2(CC(n3nc(N4CCn5nccc5C4C)c(-c4c(Cl)c(C)cc5[nH]ncc45)c3C)C2)C1 (single isomer, unassigned) [Example 41a, 1-(6-(4-(5-chloro-6-methyl-1H-indazol-4-yl)-5-methyl-3-(4-methyl-6,7-dihydropyrazolo[1,5-a]pyrazin-5(4H)-yl)-1H-pyrazol-1-yl)-2-azaspiro[3.3]heptan-2-yl)prop-2-en-1-one]
19 | C=CC(=O)N1CC2(CC(n3nc(N4CCN(C[C@H]5CCCO5)CC45CCC5)c(-c4c(Cl)c(C)cc5[nH]ncc45)c3C)C2)C1 (single isomer, unassigned) [Example 153b]
> 5000 | C=CC(=O)N1CC2(CC(n3nc(N4CCN(C[C@@H]5COCCO5)C[C@]4(C)CC)c(-c4c(Cl)cnc5[nH]ncc45)c3C)C2)C1 (single isomer, unassigned) [Example 81a]
1000 | C=CC(=O)N1CC2(CC(n3nc(N4C[C@@H]5C[C@H]4CN5C(C)=O)c(-c4c(Cl)c(C)cc5[nH]ncc45)c3C)C2)C1 [Example 6, 1-(6-(3-((1S,4S)-5-acetyl-2,5-diazabicyclo[2.2.1]heptan-2-yl)-4-(5-chloro-6-methyl-1H-indazol-4-yl)-5-methyl-1H-pyrazol-1-yl)-2-azaspiro[3.3]heptan-2-yl)prop-2-en-1-one]
302 | C=CC(=O)N1CC2(CC(n3nc(N4CCN(CC(C)(C)O)CC45CCC5)c(-c4c(OC)c(Cl)cc5[nH]ncc45)c3C)C2)C1 [Example 168, 1-(6-(4-(6-chloro-5-methoxy-1H-indazol-4-yl)-3-(8-(2-hydroxy-2-methylpropyl)-5,8-diazaspiro[3.5]nonan-5-yl)-5-methyl-1H-pyrazol-1-yl)-2-azaspiro[3.3]heptan-2-yl)prop-2-en-1-one]
23 | C=CC(=O)N1C[C@]2(C[C@H](n3nc(N4CCN(C[C@@H]5COCCO5)C[C@]4(C)CC)c(-c4c(Cl)c(C)cc5[nH]ncc45)c3C)C2)[C@H]1C (single isomer, unassigned) [Example 200b]

Structure (SMILES) | IC50 [nM]
C=CC(=O)N1CC2(CC(n3nc(N4C5CCC4COC5)c(-c4c(Cl)c(C)cc5[nH]ncc45)c3C)C2)C1 (single isomer, unassigned) [Example 112a] | > 5000
